Measured values: ChEMBL document CHEMBL5241130, “Integrating a phenotypic screening with a structural simplification strategy to identify 4-phenoxy-quinoline derivatives to potently disrupt the mitotic localization of Aurora kinase B” (Bioorg Med Chem, 2023)
Values after ≈ are worked out from the molar mass of the structure shown. Active and inactive are the calls of the source. The rule behind the calls is not given here.

Columns and labels:
[1] = molecular target: Aurora kinase B (Homo sapiens) (UniProt Q96GD4); experiment: Disruption of mitotic localization of AURKB in human RPE-MYC cells expressing BCL2 assessed as mitotic index at 40 nM measured after 6 hrs by fluorescence high content cell imaging analysis (reference value: 5.3%); assay type: cell-based
Aurora kinase B (Homo sapiens), sequence (Q96GD4 whole entry): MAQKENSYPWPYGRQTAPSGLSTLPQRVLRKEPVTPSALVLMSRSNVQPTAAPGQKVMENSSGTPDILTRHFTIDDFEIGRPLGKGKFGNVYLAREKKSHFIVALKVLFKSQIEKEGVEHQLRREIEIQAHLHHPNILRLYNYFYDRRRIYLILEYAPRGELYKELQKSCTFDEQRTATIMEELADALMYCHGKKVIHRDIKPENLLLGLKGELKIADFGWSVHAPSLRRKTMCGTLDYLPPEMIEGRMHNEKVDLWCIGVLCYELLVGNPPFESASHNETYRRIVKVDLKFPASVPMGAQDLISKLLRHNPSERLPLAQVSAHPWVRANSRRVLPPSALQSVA

[2] = molecular target: Aurora kinase B (Homo sapiens) (UniProt Q96GD4); experiment: Disruption of mitotic localization of AURKB at the spindle mid-zone and equatorial cortex in human RPE-MYC cells expressing BCL2 at 40 nM measured after 6 hrs by immunofluorescence staining analysis; assay type: cell-based
[3] = molecular target: Aurora kinase B (Homo sapiens) (UniProt Q96GD4); experiment: Disruption of kinetochore localization of AURKB during prophase of human RPE-MYC cells expressing BCL2 at 40 nM measured after 6 hrs by immunofluorescence staining analysis; assay type: cell-based
[4] = molecular target: Aurora kinase B (Homo sapiens) (UniProt Q96GD4); experiment: Disruption of mitotic localization of AURKB in human RPE-MYC cells expressing BCL2 assessed as disruption of PLK1 localization at centrosome during prophase at 40 nM measured after 6 hrs by immunofluorescence staining analysis; assay type: cell-based
NCI-H23 = experiment: Cytotoxicity against human NCI-H23 cells assessed as cell growth inhibition incubated for 3 days by MTT assay; assay type: functional, cell-based; settings: time 3.0 day
A549 = experiment: Cytotoxicity against human A549 cells assessed as cell growth inhibition incubated for 3 days by MTT assay; assay type: functional, cell-based; settings: time 3.0 day
HCT-116 = experiment: Cytotoxicity against human HCT-116 cells assessed as cell growth inhibition incubated for 3 days by MTT assay; assay type: functional, cell-based; settings: time 3.0 day
HeLa = experiment: Cytotoxicity against human HeLa cells assessed as cell growth inhibition incubated for 3 days by MTT assay; assay type: functional, cell-based; settings: time 3.0 day
NCI-N87 = experiment: Cytotoxicity against human NCI-N87 cells assessed as cell growth inhibition incubated for 3 days by MTT assay; assay type: functional, cell-based; settings: time 3.0 day
[5] = molecular target: Discoidin domain-containing receptor 2 (Homo sapiens) (UniProt Q16832); experiment: Inhibition of human recombinant DDR2 at 2 uM by KINOMEscan assay
Discoidin domain-containing receptor 2 (Homo sapiens), sequence (Q16832 whole entry, the tested form may be a part): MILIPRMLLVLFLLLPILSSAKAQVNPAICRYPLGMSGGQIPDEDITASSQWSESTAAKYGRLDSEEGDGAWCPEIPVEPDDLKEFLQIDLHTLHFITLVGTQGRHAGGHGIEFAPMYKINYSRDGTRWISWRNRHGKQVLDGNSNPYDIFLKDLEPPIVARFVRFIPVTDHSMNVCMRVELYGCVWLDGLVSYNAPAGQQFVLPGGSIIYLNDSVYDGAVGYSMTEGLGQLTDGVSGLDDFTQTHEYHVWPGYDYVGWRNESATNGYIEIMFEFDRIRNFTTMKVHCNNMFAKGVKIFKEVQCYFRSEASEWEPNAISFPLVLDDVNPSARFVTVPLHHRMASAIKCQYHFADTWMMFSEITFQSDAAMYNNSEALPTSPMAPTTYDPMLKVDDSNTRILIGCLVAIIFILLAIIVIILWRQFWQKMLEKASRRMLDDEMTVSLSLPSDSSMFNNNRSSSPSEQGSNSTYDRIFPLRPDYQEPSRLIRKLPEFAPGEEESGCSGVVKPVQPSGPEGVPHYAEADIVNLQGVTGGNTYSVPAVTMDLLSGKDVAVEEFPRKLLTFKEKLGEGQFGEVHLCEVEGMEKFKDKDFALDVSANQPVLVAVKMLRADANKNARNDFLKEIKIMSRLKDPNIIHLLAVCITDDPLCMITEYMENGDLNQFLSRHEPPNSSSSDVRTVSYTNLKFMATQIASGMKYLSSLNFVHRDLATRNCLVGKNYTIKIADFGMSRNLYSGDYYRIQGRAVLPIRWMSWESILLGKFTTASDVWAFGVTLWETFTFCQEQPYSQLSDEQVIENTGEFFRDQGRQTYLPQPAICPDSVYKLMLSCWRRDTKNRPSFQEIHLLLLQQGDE

[6] = tested on: Tyrosine-protein kinase ABL1 (Homo sapiens), P00519 [Q252H]; experiment: Inhibition of human recombinant ABL1 Q252H mutant at 2 uM by KINOMEscan assay
[7] = tested on: Tyrosine-protein kinase ABL1 (Homo sapiens), P00519 [H396P]; experiment: Inhibition of human recombinant ABL1 H396P mutant at 2 uM by KINOMEscan assay
[8] = molecular target: Discoidin domain-containing receptor 2 (Homo sapiens, UniProt Q16832); experiment: Inhibition of DDR2 (unknown origin) assessed as inhibition of DDR2 interaction with DNA-bound ligand by qPCR analysis
Discoidin domain-containing receptor 2, sequence (Q16832 whole entry, the tested form may be a part): as above

[9] = molecular target: Serine/threonine-protein kinase PLK1 (Homo sapiens) (UniProt P53350); experiment: Inhibition of PLK1 (unknown origin) by bio-chip based analysis
Serine/threonine-protein kinase PLK1 (Homo sapiens), sequence (P53350 whole entry): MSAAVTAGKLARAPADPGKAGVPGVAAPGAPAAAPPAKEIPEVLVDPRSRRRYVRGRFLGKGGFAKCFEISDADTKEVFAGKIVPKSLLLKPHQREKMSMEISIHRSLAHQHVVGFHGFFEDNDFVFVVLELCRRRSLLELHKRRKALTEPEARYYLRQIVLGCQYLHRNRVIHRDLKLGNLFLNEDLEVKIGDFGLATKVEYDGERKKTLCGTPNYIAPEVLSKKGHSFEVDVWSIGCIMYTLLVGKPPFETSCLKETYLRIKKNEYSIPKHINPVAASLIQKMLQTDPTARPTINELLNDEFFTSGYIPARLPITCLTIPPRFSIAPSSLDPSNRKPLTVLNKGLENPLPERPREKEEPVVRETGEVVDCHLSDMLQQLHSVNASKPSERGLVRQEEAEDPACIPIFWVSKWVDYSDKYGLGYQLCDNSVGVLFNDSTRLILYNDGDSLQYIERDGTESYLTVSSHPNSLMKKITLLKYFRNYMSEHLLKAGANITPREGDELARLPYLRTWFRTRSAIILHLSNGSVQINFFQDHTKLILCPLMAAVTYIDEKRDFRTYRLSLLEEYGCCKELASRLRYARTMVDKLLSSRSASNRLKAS

[10] = molecular target: Serine/threonine-protein kinase PLK2 (Homo sapiens) (UniProt Q9NYY3); experiment: Inhibition of PLK2 (unknown origin) by bio-chip based analysis
Serine/threonine-protein kinase PLK2 (Homo sapiens), sequence (Q9NYY3 whole entry, looked up): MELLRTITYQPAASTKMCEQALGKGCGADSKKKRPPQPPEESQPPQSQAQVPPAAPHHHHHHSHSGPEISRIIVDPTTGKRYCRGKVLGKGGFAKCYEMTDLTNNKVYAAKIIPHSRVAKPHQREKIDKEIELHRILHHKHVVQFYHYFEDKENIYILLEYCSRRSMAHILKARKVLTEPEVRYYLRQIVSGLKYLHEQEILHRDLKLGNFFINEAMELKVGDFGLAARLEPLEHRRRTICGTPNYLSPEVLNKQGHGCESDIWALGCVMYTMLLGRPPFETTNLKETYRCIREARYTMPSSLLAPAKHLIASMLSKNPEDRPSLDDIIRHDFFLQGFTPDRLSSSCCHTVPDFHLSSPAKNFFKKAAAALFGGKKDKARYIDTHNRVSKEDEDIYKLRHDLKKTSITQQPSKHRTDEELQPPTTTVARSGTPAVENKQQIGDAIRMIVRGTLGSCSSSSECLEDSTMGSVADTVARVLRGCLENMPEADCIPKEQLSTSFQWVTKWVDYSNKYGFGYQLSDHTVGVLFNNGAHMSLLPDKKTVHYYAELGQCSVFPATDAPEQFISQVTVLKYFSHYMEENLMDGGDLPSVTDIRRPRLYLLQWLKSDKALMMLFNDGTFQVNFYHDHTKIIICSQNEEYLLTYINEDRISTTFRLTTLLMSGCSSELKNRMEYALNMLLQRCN

[11] = molecular target: Rho-associated protein kinase 1 (Homo sapiens) (UniProt Q13464); experiment: Inhibition of ROCK1 (unknown origin) by bio-chip based analysis
[12] = molecular target: Rho-associated protein kinase 2 (Homo sapiens) (UniProt O75116); experiment: Inhibition of ROCK2 (unknown origin) by bio-chip based analysis
Rho-associated protein kinase 2 (Homo sapiens), sequence (O75116 whole entry, looked up): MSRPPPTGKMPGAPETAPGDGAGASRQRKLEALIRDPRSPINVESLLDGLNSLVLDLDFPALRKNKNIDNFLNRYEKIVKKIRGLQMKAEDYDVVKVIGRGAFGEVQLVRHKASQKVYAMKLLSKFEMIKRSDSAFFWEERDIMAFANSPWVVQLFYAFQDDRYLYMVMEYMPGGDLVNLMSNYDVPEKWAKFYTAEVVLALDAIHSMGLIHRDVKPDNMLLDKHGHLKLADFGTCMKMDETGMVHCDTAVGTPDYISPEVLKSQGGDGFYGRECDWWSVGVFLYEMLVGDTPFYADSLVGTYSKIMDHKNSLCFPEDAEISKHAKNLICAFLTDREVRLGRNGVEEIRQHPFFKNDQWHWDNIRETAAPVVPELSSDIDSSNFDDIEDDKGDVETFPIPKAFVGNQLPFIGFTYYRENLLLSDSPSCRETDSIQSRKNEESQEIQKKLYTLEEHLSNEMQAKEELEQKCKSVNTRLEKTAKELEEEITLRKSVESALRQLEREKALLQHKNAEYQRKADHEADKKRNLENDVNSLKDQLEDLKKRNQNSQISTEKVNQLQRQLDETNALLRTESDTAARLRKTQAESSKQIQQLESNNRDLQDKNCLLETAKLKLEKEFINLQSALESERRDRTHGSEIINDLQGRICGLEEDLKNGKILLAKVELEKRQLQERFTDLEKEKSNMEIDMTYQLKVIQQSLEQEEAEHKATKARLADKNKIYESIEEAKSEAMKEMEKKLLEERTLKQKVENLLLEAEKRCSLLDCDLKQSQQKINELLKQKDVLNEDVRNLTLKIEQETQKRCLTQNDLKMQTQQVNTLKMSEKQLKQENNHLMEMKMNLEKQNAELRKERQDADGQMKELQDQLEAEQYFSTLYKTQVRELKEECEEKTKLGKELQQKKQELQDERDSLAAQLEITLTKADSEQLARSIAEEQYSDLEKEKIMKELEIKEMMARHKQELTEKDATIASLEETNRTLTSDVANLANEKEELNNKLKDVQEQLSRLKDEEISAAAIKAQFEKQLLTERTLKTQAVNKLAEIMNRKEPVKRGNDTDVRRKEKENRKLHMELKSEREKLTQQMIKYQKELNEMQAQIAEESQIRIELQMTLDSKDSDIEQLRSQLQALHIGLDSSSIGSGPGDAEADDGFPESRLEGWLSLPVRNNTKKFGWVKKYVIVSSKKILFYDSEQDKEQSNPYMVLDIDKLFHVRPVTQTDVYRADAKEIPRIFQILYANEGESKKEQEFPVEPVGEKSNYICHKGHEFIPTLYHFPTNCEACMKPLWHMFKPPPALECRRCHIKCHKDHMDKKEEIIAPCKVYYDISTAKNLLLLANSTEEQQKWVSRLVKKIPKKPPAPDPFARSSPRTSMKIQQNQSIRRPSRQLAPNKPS

[13] = Drug degradation in mouse plasma at 1 to 10 uM incubated for 2 hrs by LC-MS analysis; assay type: ADME, cell-free; settings: dose 1-10 µM, read-out: Drug degradation
[14] = Kinetic solubility of the compound in PBS buffer at pH 7.4 measured after 72 hrs by LC-MS analysis; assay type: physicochemical; settings: read-out: Kinetic_solubility
[15] = Lipophilicity, log D of the compound in Octanol and HCl buffer at pH 2.2 incubated for 24 hrs under shaking condition followed by incubation for 1 hr without shaking by LC-MS analysis; assay type: physicochemical
[16] = Half life in Wistar rat at 20 mg/kg, po measured for 24 hrs by LC-MS/MS analysis; assay type: ADME, organism-based; settings: in vivo
[17] = Tmax in Wistar rat at 20 mg/kg, po measured for 24 hrs by LC-MS/MS analysis; assay type: ADME, organism-based; settings: in vivo
[18] = Dose normalized AUC (0 to infinity) in Wistar rat at 20 mg/kg, po by LC-MS/MS analysis; assay type: ADME, organism-based; settings: in vivo
[19] = Half life in Wistar rat at 2 mg/kg, iv measured for 24 hrs by LC-MS/MS analysis; assay type: ADME, organism-based; settings: in vivo
[20] = Dose normalized AUC (0 to infinity) in Wistar rat at 2 mg/kg, iv by LC-MS/MS analysis; assay type: ADME, organism-based; settings: in vivo
[21] = Toxicity in BALB/c nude mouse xenografted with human HCT-116 cells assessed as animal's well being at 50 mg/kg, po bid for 7 days; assay type: organism-based; settings: in vivo, 168 h, time 7 day
Mus musculus = experiment: Induction of mitotic arrest in BALB/c nude mouse xenografted with human HCT-116 cells assessed as increase in mitotic index by measuring increase in accumulation of H3Ser10P positive cells in tumor at 50 mg/kg, po bid for 7 days by immunohistochemical staining based analysis relative to control; assay type: functional; settings: time 7 day
[22] = Drug uptake in tumor of BALB/c nude mouse xenografted with human HCT-116 cells at 50 mg/kg, po bid for 7 days and measured at 6 hrs post-last drug administration by LC-MS/MS analysis; assay type: ADME, organism-based, Neoplasm; settings: time 7 day, read-out: Drug uptake
[23] = Ratio of AUC (0 to 6 hrs) in BALB/c nude mouse xenografted with human HCT-116 cells at 50 mg/kg, po bid for 7 days to AUC (0 to 6 hrs) in BALB/c nude mouse xenografted with human HCT-116 cells administered as single dose; assay type: ADME, organism-based; settings: in vivo
[24] = Plasma concentration in BALB/c nude mouse xenografted with human HCT-116 cells administered as single dose and measured after 6 hrs by LC-MS/MS analysis; assay type: ADME
[25] = molecular target: Aurora kinase B (Homo sapiens) (UniProt Q96GD4); experiment: Disruption of mitotic localization of AURKB in human RPE-MYC H2B-GFP cells assessed as induction of mitotic arrest by fluorescence high content cell imaging analysis; assay type: cell-based
[26] = molecular target: Aurora kinase B (Homo sapiens) (UniProt Q96GD4); experiment: Disruption of mitotic localization of AURKB in human RPE-MYC H2B-GFP cells assessed as induction of polyploidy by fluorescence high content cell imaging analysis relative to control; assay type: cell-based
[27] = molecular target: T1, Aurora kinase A (Homo sapiens) (UniProt O14965); experiment: Inhibition of AURKA in human RPE-MYC H2B-GFP cells assessed as inhibition of autophosphorylation of AURKA at Thr288 residue at 8XMEC measured after 6 hrs by immunofluorescence staining analysis; assay type: cell-based
T1 sequence (whole entry): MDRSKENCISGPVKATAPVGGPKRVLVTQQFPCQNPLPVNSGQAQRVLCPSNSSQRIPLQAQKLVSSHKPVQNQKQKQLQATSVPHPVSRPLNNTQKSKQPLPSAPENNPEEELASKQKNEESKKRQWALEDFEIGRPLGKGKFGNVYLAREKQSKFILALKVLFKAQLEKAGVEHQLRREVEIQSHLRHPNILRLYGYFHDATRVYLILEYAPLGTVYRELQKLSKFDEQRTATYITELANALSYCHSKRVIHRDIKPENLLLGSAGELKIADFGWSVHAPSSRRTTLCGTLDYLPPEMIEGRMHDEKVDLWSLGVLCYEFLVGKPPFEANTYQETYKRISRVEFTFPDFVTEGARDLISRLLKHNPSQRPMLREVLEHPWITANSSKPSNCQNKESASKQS

With COc1cc(NC(C)=O)cc(Oc2ccnc3ccc(OC)cc23)c1 the Activity [1] was 15.3%, the Activity [2] was “Active” and the Activity [3] was “inactive”. The Activity [4] was “inactive”, the Activity (NCI-H23) was “Active” and the Activity (A549) was “Active”. For the same molecule, the Activity (HCT-116) was “Active”, the Activity (HeLa) was “Active” and the Activity (NCI-N87) was “Active”. The inhibition [5] was “Active”, the inhibition [6] was “Active” and the inhibition [7] was “Active”. For the same molecule, the IC50 [8] was 225 nM, the inhibition [9] was “inactive” and the inhibition [10] was “inactive”. The inhibition [11] was “inactive”, the inhibition [12] was “inactive” and the metabolised at 2 h, up to 10 µM [13] was 0%. For the same molecule, the solubility kinetic at 72 h [14] was 16 µM (≈ 5.41 µg/mL), the logD at 25 h [15] was 0.31 and the half-life [16] was 3.26 h. It also gave a Tmax [17] of 0.5 h, an AUC/dose [18] of 149.54 ng·h/mL/mg/kg and a half-life [19] of 1.09 h. For the same molecule, the AUC/dose [20] was 517.74 ng·h/mL/mg/kg, the Activity [21] was “Non-Toxic” and the “fold change (FC)” value (Mus musculus) was 6.7. The concentration at 168 h [22] was 239 ng/mL, the Ratio [23] was 2 and the concentration at 6 h [24] was 213 ng/mL. For the same molecule, the Activity [25] was “inactive”, the Activity [26] was 100% and the inhibition [27] was < 40%.
